According to patent publication US20110257146A1, “Method of Treating Kcnq Related Disorders Using Organozinc Compounds” (The johns Hopkins University, priority 2006, published 2011):
Several values for one entry are separate records, joined by “and”; a condition that tells them apart may be missing. Equal entries are not always repeated.

Assays:
[1] = target: T1, human ether-a-go-go related gene (hERG) (Homo sapiens, UniProt Q12809); assay type: cell-based
T1 construct: expressed in transfected cells
Method: Cell culture and transient transfection—Chinese Hamster Ovary (CHO) cells were grown in 50/50 DMEM/F12 (Cellgro) with 10% FBS (Gibco), 100 U/ml penicillin (Cellgro), 100 μg/ml streptomycin (Cellgro) and 2 mM L-glutamine (Gibco). At 24 hours before transfection, cells were split and plated in 60 mm dishes and were transfected with Lipofectamine2000™ reagent (Invitrogen) according to the manufacturer's instruction. At 24 hours after transfection, cells were split and re-plated onto coverslips coated with poly-L-lysine (Sigma). Plasmid expressing CD4 cDNA as a marker was cotransfected with the channel cDNAs of hKCNQ1 (from Dr. Michael Sanguinetti), hKCNQ4 (from Dr. Vitya Vardanyan), rKCNQ2, rKCNQ3, and hKCNQ5 (from Drs. David McKinnon, Mark Shapiro, and Thomas Jentsch). Prior to recording, anti-CD4 Dynabeads (Dynal. Biotech. Inc.) were added into the medium to allow for identification of the transfected cells. Stable lines expressing Kv2.1, hERG, and Kv4.2 were generated by standard protocols using pcDNA3.1 and maintained at complete medium supplemented with 500 μg/ml G418. […]
Electrophysiological Recording—Standard whole-cell recording was used. […] Current and voltage were recorded using an Axopatch-200A amplifier, filtered at 1 kHz and digitized using a DigiData 1322A with pClamp 9.2 software (Axon Instruments, Foster City, Calif.). […]

KCNQ2(R207W) = target: T2, KCNQ2(R207W) (Rattus norvegicus, UniProt O88943, R207W); experiment: Whole-cell recording of KCNQ2(R207W) BFNC mutant in CHO cells; assay type: cell-based; settings: 10 μM ZnPy
T2 construct: expressed in transfected cells; host or cells: CHO cells, transient
Method: FIG. 11. ZnPy effects on BFNC mutant channels expressed in CHO cells. A. whole-cell currents of KCNQ2(R207W), KCNQ2(Y284C), and KCNQ2(A306T) were recorded in the absence (left) and presence (right) of 10 μM ZnPy, Vh was −80 mV, in 10 mV voltage steps from −70 mV to +50 mV. B. a histogram plotting potentiation effects on KCNQ2 wild type (wt) and BFNC mutants (R207W, Y284C and […]) by ZnPy (filled box) and retigabine (open box) (n≧4, * p<0.001, ** p<0.05).
(§1) Mutagenesis—Starting from KCNQ cDNAs, the KCNQ2 point mutants were constructed by recombinant PCR and verified by sequencing.
Electrophysiological Recording—Standard whole-cell recording was used. Pipettes were pulled from borosilicate glass capillaries (TW150-4, World Precision Instruments, Sarasota, Fla.). When filled with the intracellular solution, the pipettes have resistances of […]. During the recording, constant perfusion of extracellular solution was maintained using a BPS perfusion system (ALA, Westbury, N.Y.). Pipette solution contained (mM): KCl 145, MgCl2 1, EGTA 5, HEPES 10, MgATP 5 (pH 7.3); extracellular solution contained (mM): NaCl 140, KCl 3, CaCl2 2, MgCl2 1.5, HEPES 10, glucose 10 (pH 7.4). Current and voltage were recorded using an Axopatch-200A amplifier, filtered at 1 kHz and digitized using a DigiData 1322A with pClamp 9.2 software (Axon Instruments, Foster City, Calif.). […]

KCNQ2 = KCNQ2 (Rattus norvegicus, UniProt O88943); experiment: Single channel outside-out patch recording of KCNQ2; assay type: cell-based; parameters: expressed in transfected cells; host or cells: CHO cells
Method: For single channel recording procedure, outside-out patch recording was used. The pipettes had resistances of 7-15 MΩ when filled with the intracellular solution of the following composition (mM): KCl 145, MgCl2 1, EGTA 5, HEPES 10, MgATP 5 (pH 7.3). Extracellular solution contained (mM): NaCl 150, KCl 5, CaCl2 2, MgCl2 1, HEPES 10, glucose 10 (pH 7.4). Current and voltage were recorded using an Axopatch-200B amplifier, sample at 4 kHz and filtered at 200 Hz, and digitized using a DigiData 1322A with pClamp 9.2 software (Axon Instruments, Foster City, Calif.).
The open probability (Po) and single channel current (i) were calculated by fitting all-point histograms with single- or multi-Gaussian curves. The ratio of the area under the fitted ‘open’ Gaussian to the total area under the entire Gaussian was taken as Po, and the difference between the fitted “closed” and “open” peaks was taken as i, single channel conductance (γ) was calculated by the equation: γ=i/(V−V5).

[2] = test system: lymphocytic leukemia cells; settings: micromolar concentrations; cited from earlier work
KCNQ2 L249A = target: T3, KCNQ2 L249A (Rattus norvegicus, UniProt O88943, L249A); experiment: Whole-cell recording of KCNQ2 L249A mutant; assay type: cell-based
T3 construct: expressed in transfected cells
Description: (§2) FIG. 9. KCNQ2 point mutants selectively lose ZnPy sensitivity. […] Each mutation site was indicated based on the predicted transmembrane regions. Dashed line indicates the potentiation level of wt KCNQ2 channel in the absence of ZnPy. […] C. Modeling of the S5-pore-S6 region of KCNQ2.
as §1
(§3) Electrophysiological Recording—Standard whole-cell recording was used. Pipettes were pulled from borosilicate glass capillaries (TW150-4, World Precision Instruments, Sarasota, Fla.). When filled with the intracellular solution, the pipettes have resistances of […]. During the recording, constant perfusion of extracellular solution was maintained using a BPS perfusion system (ALA, Westbury, N.Y.). Pipette solution contained (mM): KCl 145, MgCl2 1, EGTA 5, HEPES 10, MgATP 5 (pH 7.3); extracellular solution contained (mM): NaCl 140, KCl 3, CaCl2 2, MgCl2 1.5, HEPES 10, glucose 10 (pH 7.4). Current and voltage were recorded using an Axopatch-200A amplifier, filtered at 1 kHz and digitized using a DigiData 1322A with pClamp 9.2 software (Axon Instruments, Foster City, Calif.). Series resistance compensation was also used and set to 60-80%.

KCNQ2 L275A = target: T4, KCNQ2 L275A (Rattus norvegicus, UniProt O88943, L275A); experiment: Whole-cell recording of KCNQ2 L275A mutant; assay type: cell-based
T4 construct: expressed in transfected cells
Description: as §2, §1, §3

T1 sequence (Q12809 whole entry): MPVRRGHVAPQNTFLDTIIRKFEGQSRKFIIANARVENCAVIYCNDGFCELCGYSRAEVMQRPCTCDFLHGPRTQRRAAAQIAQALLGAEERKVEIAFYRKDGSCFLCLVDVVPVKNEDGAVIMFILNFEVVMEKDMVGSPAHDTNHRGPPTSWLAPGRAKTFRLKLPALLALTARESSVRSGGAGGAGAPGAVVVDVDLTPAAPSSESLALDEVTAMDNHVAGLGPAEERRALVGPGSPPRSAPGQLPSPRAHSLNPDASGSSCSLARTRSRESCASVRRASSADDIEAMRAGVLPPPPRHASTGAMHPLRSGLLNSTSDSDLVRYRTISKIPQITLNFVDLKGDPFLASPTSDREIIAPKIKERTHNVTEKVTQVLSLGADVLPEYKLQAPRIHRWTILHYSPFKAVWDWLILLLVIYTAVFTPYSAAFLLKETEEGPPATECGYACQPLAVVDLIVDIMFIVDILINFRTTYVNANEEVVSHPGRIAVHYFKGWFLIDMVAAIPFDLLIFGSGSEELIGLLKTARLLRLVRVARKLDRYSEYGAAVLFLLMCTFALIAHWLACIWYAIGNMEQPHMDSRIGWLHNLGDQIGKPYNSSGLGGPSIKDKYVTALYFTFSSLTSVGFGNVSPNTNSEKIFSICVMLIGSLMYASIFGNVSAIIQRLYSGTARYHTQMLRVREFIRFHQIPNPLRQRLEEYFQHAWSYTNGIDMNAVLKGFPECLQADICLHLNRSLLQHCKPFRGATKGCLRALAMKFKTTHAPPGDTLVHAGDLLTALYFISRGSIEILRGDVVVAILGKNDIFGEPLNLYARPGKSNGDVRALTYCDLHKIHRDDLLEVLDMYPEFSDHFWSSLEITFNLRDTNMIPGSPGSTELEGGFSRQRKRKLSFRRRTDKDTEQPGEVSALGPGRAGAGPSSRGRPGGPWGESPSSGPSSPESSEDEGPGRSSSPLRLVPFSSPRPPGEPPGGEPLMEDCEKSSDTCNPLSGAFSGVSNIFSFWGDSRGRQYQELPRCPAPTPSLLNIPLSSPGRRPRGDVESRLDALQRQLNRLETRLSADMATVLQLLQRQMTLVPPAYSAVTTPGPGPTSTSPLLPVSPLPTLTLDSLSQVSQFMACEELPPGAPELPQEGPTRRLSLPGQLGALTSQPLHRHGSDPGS

For `S=c1ccccn1[O][Zn][O]n1ccccc1=S` [ZnPy, Zinc Pyrithione], the “potentiation of channel activity” value [1] was “did not potentiate”, the fold current increase (KCNQ2(R207W)) was “more than 3 fold” and the “single channel open probability (Po)” value (KCNQ2; 0 mV, 10 μM ZnPy, control 0.13) was 0.77±0.06 and 0.77. The “fitted unitary current amplitude” value (KCNQ2; 0 mV, 10 μM ZnPy, control 0.51 pA) was 0.52 pA, the “fold increase in Po” value (KCNQ2; 10 μM ZnPy) was 5.9 fold and the single channel conductance (KCNQ2; in the presence or absence of ZnPy) was 6.6±0.15 pS. The “anti-apoptotic effect in vitro” value [2] was “protected lymphocytic leukemia cells against colchicine-induced apoptosis”, the “change in V1/2 caused by ZnPy” value (KCNQ2 L249A) was “significant reduction on changes in V1/2” and the “change in V1/2 caused by ZnPy” value (KCNQ2 L275A) was “significant reduction on changes in V1/2”.
